From ChEMBL document CHEMBL4483862, “Open-source discovery of chemical leads for next-generation chemoprotective antimalarials” (2018)

Tested on: Plasmodium berghei
Experiment: Luciferase/luciferin-expressing antifolate-resistant parasites were used to infect a culture of HepG2 cells that were pre-incubated with compounds. Infected hepatocytes emit light due to the luciferase reaction. Assay results are presented as the percent inhibition of light emission compared to control. […]
Type: functional
Details: sporozoite; for IC90: read-out: LUCIFERASE INFECTION ASSAY - IC90
[1] = read-out: LUCIFERASE INFECTION ASSAY - IC50

For `COc1ccc(O)c(/C=N/Nc2ncc(C(F)(F)F)cc2Cl)c1`, the IC50 (HEPG2TOX_HILL_SLOPE 3.8, HEPG2TOX_R_SQUARED 0.813, PBLUC_HILL_SLOPE 18.3, PBLUC_R_SQUARED 0.305, read-out: LUCIFERASE INFECTION ASSAY - IC50) was 3.31 µM and the IC90 was 3.73 µM.
`N#Cc1cnc(S)nc1N` gave an IC50 [1] of over 21.7 µM and an IC90 of over 21.7 µM.
With `CCN(CC)S(=O)(=O)c1ccc(C(C)NC(=O)c2cn(C)c3ccccc23)cc1` (stereo not drawn) the IC50 (PBLUC_HILL_SLOPE 2.76, PBLUC_R_SQUARED 0.764, read-out: LUCIFERASE INFECTION ASSAY - IC50) was 2.73 µM and the IC90 was 6.07 µM.
Molecule `Cc1ccccc1/N=C1\SCC(C)(C)N1C(=O)c1ccccc1OCc1ccccc1` has an IC50 [1] of over 10 µM and an IC90 of over 10 µM.
For `O=C(Nc1cccc(C(F)(F)F)c1)n1nccc1-c1cc(-c2ccccc2)no1`, the IC50 (HEPG2TOX_HILL_SLOPE 0.0838, HEPG2TOX_R_SQUARED 0.0659, PBLUC_HILL_SLOPE 13.2, PBLUC_R_SQUARED 0.221, read-out: LUCIFERASE INFECTION ASSAY - IC50) was 2.81 µM and the IC90 was 3.32 µM.
`CCCCCCCCNC(=O)/C(C#N)=C/c1ccc(C)cc1C` showed an IC50 [1] of over 10 µM and an IC90 of over 10 µM.
`CCOC(=O)Cc1nn(Cc2nc(-c3ccc(C(F)(F)F)cc3)cs2)c(=O)c2ccccc12` was tested, and the IC50 [1] was over 6.97 µM and the IC90 was over 6.97 µM.
With `CCOc1ccc(-c2nc(CC(=O)NCc3ccnc(OC)c3)cs2)cc1` the IC50 (PBLUC_HILL_SLOPE 12.8, PBLUC_R_SQUARED 0.477, read-out: LUCIFERASE INFECTION ASSAY - IC50) was 2.91 µM and the IC90 was 3.46 µM.
In the case of `c1ccc(-c2csc3ncnc(N4CCN(c5cnccn5)CC4)c23)cc1`, the IC50 [1] is reported as over 10 µM and the IC90 is reported as over 10 µM.
`S=c1[nH]c2ccccc2n1C1CCCCC1` was tested, and the IC50 [1] was over 10 µM and the IC90 was over 10 µM.
For `C#CCOc1ccc(CNCCc2ccccc2)cc1OCC`, the IC50 (PBLUC_HILL_SLOPE 6.85, PBLUC_R_SQUARED 0.0184, read-out: LUCIFERASE INFECTION ASSAY - IC50) was over 9.54 µM and the IC90 was over 9.54 µM.
Work on `COc1ccc(C2CC(CCc3c[nH]c4ccccc34)=NN2c2ccccc2)cc1` (stereo not drawn) yielded an IC50 [1] of 3.35 µM and an IC90 of 3.8 µM.
In the case of `c1ccc(-c2csc3ncnc(NC4CCCCC4)c23)cc1`, the IC50 (HEPG2TOX_HILL_SLOPE 16.2, HEPG2TOX_R_SQUARED 0.468, PBLUC_HILL_SLOPE 9.94, 2.76, PBLUC_R_SQUARED 0.433, 0.667, read-out: LUCIFERASE INFECTION ASSAY - IC50) is reported as 4.13 µM and the IC90 is reported as 4.21 µM.
In the case of `COc1ccc(-c2ccc(/C=N/Nc3ccc(F)cc3)s2)cc1`, the IC50 (HEPG2TOX_HILL_SLOPE 1.1, HEPG2TOX_R_SQUARED 0.99, PBLUC_HILL_SLOPE 2.83, PBLUC_R_SQUARED 0.421, read-out: LUCIFERASE INFECTION ASSAY - IC50) is reported as 2.5 µM and the IC90 is reported as 5.44 µM.
Work on `Cn1cccc1C(=O)N1CC2ON=C(c3ccc(F)cc3)C2C1` (stereo not drawn) yielded an IC50 [1] of over 10 µM and an IC90 of over 10 µM.
With `O=C(Nc1cccc(C(F)(F)F)c1)c1cccc(Cn2cc(C(F)(F)F)ccc2=O)c1` the IC50 (PBLUC_HILL_SLOPE 12.4, PBLUC_R_SQUARED 0.188, read-out: LUCIFERASE INFECTION ASSAY - IC50) was 6.37 µM and the IC90 was over 7.49 µM.
`CCN(CC)c1nc2c3c(nc4c(c3c1C#N)CC(c1ccccc1)O4)NC1(CCCCC1)N2` (stereo not drawn) was tested, and the IC50 (FFLUC_HILL_SLOPE 304, FFLUC_R_SQUARED 0.442, PBLUC_HILL_SLOPE 2.01, PBLUC_R_SQUARED 0.722, read-out: LUCIFERASE INFECTION ASSAY - IC50) was 6.1 µM and the IC90 was over 10 µM.
`Cc1noc(C)c1CSc1ncccc1C(=O)N(C)c1ccc2ccccc2c1` was tested, and the IC50 [1] was over 10 µM and the IC90 was over 10 µM.
`CC(=O)Nc1ccc(-c2ccnc3c2CC(C(=O)Nc2cccc(C(F)(F)F)c2)O3)cc1` (stereo not drawn) was tested, and the IC50 [1] was 4.23 µM and the IC90 was over 7.48 µM.
Work on `Cc1cccn2c(C(=O)NC(C)C)c(NC(=O)c3cccc(C(F)(F)F)c3)nc12` yielded an IC50 [1] of over 8.16 µM and an IC90 of over 8.16 µM.
`O=c1nc(-c2ccc(Cl)cc2)oc2ccccc12` gave an IC50 (PBLUC_HILL_SLOPE 3.1, PBLUC_R_SQUARED 0.539, read-out: LUCIFERASE INFECTION ASSAY - IC50) of 5.33 µM and an IC90 of 10.8 µM.
`CNc1ccccc1C(C)(C)c1cc(-c2ccc(F)cc2)no1` gave an IC50 [1] of 8.62 µM and an IC90 of over 10 µM.
`COc1cc(OC)cc(OCC(O)Cn2ccnc2)c1` (stereo not drawn) showed an IC50 [1] of over 11.9 µM and an IC90 of over 11.9 µM.
`CCc1cc(-c2n[nH]cc2-c2ccc3c(c2)OCCO3)c(O)cc1OC` gave an IC50 (HEPG2TOX_HILL_SLOPE 1.05, HEPG2TOX_R_SQUARED 0.928, PBLUC_HILL_SLOPE 1.82, PBLUC_R_SQUARED 0.694, read-out: LUCIFERASE INFECTION ASSAY - IC50) of 0.474 µM and an IC90 of 1.59 µM.
In the case of `O=C(Nc1ccc(Oc2ccccc2)cc1)C1=CN2CCN(Cc3ccccc3)C(=O)N=C2O1`, the IC50 [1] is reported as over 10 µM and the IC90 is reported as over 10 µM.
In the case of `CN(CCO)C(=O)Nc1sc2c(c1C(N)=O)CCC2`, the IC50 [1] is reported as over 11.6 µM and the IC90 is reported as over 11.6 µM.
For `CNS(=O)(=O)c1ccc(CNc2ncnc3cc(-c4ccc(OC)cc4)sc23)s1`, the IC50 [1] was 0.653 µM and the IC90 was 2.1 µM.
`COc1ccc(-c2cc(C(=O)NNC(=S)NC3CC4CCC3C4)[nH]n2)cc1` (stereo not drawn) gave an IC50 [1] of over 10 µM and an IC90 of over 10 µM.
`CCCNC(=O)c1c(NC(=O)c2ccc(F)c(F)c2F)nc2ccccn12` gave an IC50 (HEPG2TOX_HILL_SLOPE 5.13, HEPG2TOX_R_SQUARED 0.252, PBLUC_HILL_SLOPE 2.06, PBLUC_R_SQUARED 0.791, read-out: LUCIFERASE INFECTION ASSAY - IC50) of 6.47 µM and an IC90 of over 8.77 µM.
`Cc1ccc(NC(=O)Cn2nnc(-c3ccccc3)n2)cc1S(=O)(=O)N1CCCCCC1` was tested, and the IC50 (HEPG2TOX_HILL_SLOPE 11.8, HEPG2TOX_R_SQUARED 0.86, PBLUC_HILL_SLOPE 22, PBLUC_R_SQUARED 0.334, read-out: LUCIFERASE INFECTION ASSAY - IC50) was 9.07 µM and the IC90 was over 10 µM.
With `CC1CCN(CC(O)COC2CC(C)CC(C)(C)C2)CC1` (stereo not drawn) the IC50 [1] was over 9.88 µM and the IC90 was over 9.88 µM.
`Cn1ccc2cc(-c3cnc4cnc(-c5ccc6c(c5)OCO6)cn34)ccc21` gave an IC50 (HEPG2TOX_HILL_SLOPE 1.26, HEPG2TOX_R_SQUARED 0.912, PBLUC_HILL_SLOPE 10.9, PBLUC_R_SQUARED 0.837, read-out: LUCIFERASE INFECTION ASSAY - IC50) of 0.0338 µM and an IC90 of 0.0413 µM.
Work on `CN(C(=O)CCc1cc(C(C)(C)C)c(O)c(C(C)(C)C)c1)C1CCS(=O)(=O)C1` (stereo not drawn) yielded an IC50 [1] of over 10 µM and an IC90 of over 10 µM.
`COc1cccc(C(=O)Nc2ccc(Sc3cccc(C(F)(F)F)c3)c(C#N)c2)c1` was tested, and the IC50 [1] was over 7.7 µM and the IC90 was over 7.7 µM.
For `O=C(CN1CCCc2ccccc21)NC(=O)NCc1ccccc1`, the IC50 (PBLUC_HILL_SLOPE 112, PBLUC_R_SQUARED 0.458, read-out: LUCIFERASE INFECTION ASSAY - IC50) was 7.29 µM and the IC90 was 7.44 µM.
For `CCc1cccc2c(C(=O)COC(=O)/C(C#N)=C/c3ccc(OC)cc3)c[nH]c12`, the IC50 (HEPG2TOX_HILL_SLOPE 1.4, HEPG2TOX_R_SQUARED 0.562, read-out: LUCIFERASE INFECTION ASSAY - IC50) was over 10 µM and the IC90 was over 10 µM.
`O=S(=O)(Oc1ccc2oc3ccccc3c2c1)c1ccccc1F` gave an IC50 [1] of over 10 µM and an IC90 of over 10 µM.
For `CCOc1ccccc1N(C(=O)C1CC=CCC1)c1nc2ccccc2s1` (stereo not drawn), the IC50 (HEPG2TOX_HILL_SLOPE 6.4, HEPG2TOX_R_SQUARED 0.335, PBLUC_HILL_SLOPE 2.71, PBLUC_R_SQUARED 0.0983, read-out: LUCIFERASE INFECTION ASSAY - IC50) was 7.73 µM and the IC90 was over 10 µM.
Work on `CC(Nc1ccc2c(c1)OC(F)(F)O2)C(=O)Nc1ccc(Cl)cn1` (stereo not drawn) yielded an IC50 [1] of over 10 µM and an IC90 of over 10 µM.
With `O=C(Nc1ccc(Cl)cc1C(F)(F)F)C(OC(=O)C(c1ccccc1)c1ccccc1)c1ccccc1` (stereo not drawn) the IC50 [1] was over 10 µM and the IC90 was over 10 µM.
For `CC(C(=O)Nc1ccc(S(=O)(=O)N2CCCC2)cc1)N1CCC(CCc2ccc(O)cc2)CC1` (stereo not drawn), the IC50 (FFLUC_HILL_SLOPE 12.4, FFLUC_R_SQUARED 0.343, PBLUC_HILL_SLOPE 0.669, PBLUC_R_SQUARED 0.407, read-out: LUCIFERASE INFECTION ASSAY - IC50) was over 10 µM and the IC90 was over 10 µM.
In the case of `CCCOc1cc2cc(C(=O)c3ccccc3O)cnc2cc1OCCC`, the IC50 (FFLUC_HILL_SLOPE 5.56, FFLUC_R_SQUARED 0.125, HEPG2TOX_HILL_SLOPE 2.18, HEPG2TOX_R_SQUARED 0.51, PBLUC_HILL_SLOPE 8.83, PBLUC_R_SQUARED 0.576, read-out: LUCIFERASE INFECTION ASSAY - IC50) is reported as 3.73 µM and the IC90 is reported as 4.78 µM.
`Cc1ccc(/C=C2\CCc3c2nc2ccccc2c3C(=O)OCc2cccc(S(=O)(=O)N(C)C)c2)cc1` gave an IC50 (PBLUC_HILL_SLOPE 0.892, PBLUC_R_SQUARED 0.634, read-out: LUCIFERASE INFECTION ASSAY - IC50) of 1.2 µM and an IC90 of over 10 µM.
Work on `Cc1cc(C(=O)COC(=O)c2ccccc2S(=O)(=O)N(C)c2ccccc2)c(C)n1C1CC1` yielded an IC50 (HEPG2TOX_HILL_SLOPE 8.61, HEPG2TOX_R_SQUARED 0.607, read-out: LUCIFERASE INFECTION ASSAY - IC50) of over 10 µM and an IC90 of over 10 µM.
`CNc1nc2cnc(Nc3cc(C(F)(F)F)ccc3F)cc2n1Cc1ccco1` was tested, and the IC50 (HEPG2TOX_HILL_SLOPE 10.6, HEPG2TOX_R_SQUARED 0.165, read-out: LUCIFERASE INFECTION ASSAY - IC50) was over 10 µM and the IC90 was over 10 µM.
`CCCNC(=O)c1c(NC(=O)c2ccc(F)cc2F)nc2ccccn12` gave an IC50 (HEPG2TOX_HILL_SLOPE 7.34, HEPG2TOX_R_SQUARED 0.716, PBLUC_HILL_SLOPE 2.53, PBLUC_R_SQUARED 0.731, read-out: LUCIFERASE INFECTION ASSAY - IC50) of 3.66 µM and an IC90 of 8.71 µM.
`FC(F)(F)Oc1cccc(-c2cnc3sc(NCCc4ccncc4)nn23)c1` gave an IC50 (HEPG2TOX_HILL_SLOPE 1.76, HEPG2TOX_R_SQUARED 0.88, read-out: LUCIFERASE INFECTION ASSAY - IC50) of over 8.14 µM and an IC90 of over 8.14 µM.
`CN(C)Cc1nc(O)c2c(n1)-c1ccccc1CC2(C)C` was tested, and the IC50 (PBLUC_HILL_SLOPE 13.2, PBLUC_R_SQUARED 0.272, read-out: LUCIFERASE INFECTION ASSAY - IC50) was 3.66 µM and the IC90 was 4.32 µM.
In the case of `NS(=O)(=O)c1ccc(N2CCOCC2)c(C(=O)NCCOc2ccc3ccccc3c2)c1`, the IC50 [1] is reported as over 10 µM and the IC90 is reported as over 10 µM.
